Values of other authors, collected in patent publication US9789076B2, “Bolus dose of hydroxycitric acid with glycerol” (GLYKON TECHNOLOGIES GROUP, LLC, priority 2014, dated 2017).
Read-outs that look alike come from different tables or passages of the source.

How the values were obtained:
[1] = test system: fatty acid synthesis
[2] = rats, oral, 30 days
[3] = 0.33 mmoles/kg twice daily (total 0.66 mmoles/kg)

## O=C(O)CC(O)(C(=O)O)C(O)C(=O)O (single isomer, unassigned; (-)) [hydroxycitrate, (−)-Hydroxycitric acid]
[1]
  inhibition of acetate or ethanol incorporation into fatty acid synthesis: no hydroxycitrate inhibition

## O=C([O-])CC(O)(C(=O)[O-])C(O)C(=O)[O-].[Na+].[Na+].[Na+] (stereo not drawn) [trisodium hydroxycitrate]
[2]; [3]
  food consumption, percent of controls: 87%
  weight gain, percent of controls: 62%
[2]; 2.63 mmoles/kg as bolus
  food consumption, percent of controls: 83%
  weight gain, percent of controls: 64%
[2]; given twice daily
  lowest effect dosage: 0.33 mmoles/kg body weight
